What all share (test): inhibition of tumour cell growth, NCI panel, 48 h
The subject of assay [1] is A498 renal.
The test system of assay [2] is CCRF-CEM leukemia.
For assay [3], the system named is HOP-92 NSCLC.
The test system of assay [4] is LOX IMVI melanoma.
Assay [5] relates to MCF7 breast.
Assay [6] has as its system NCI-H226 lung.
The test system of assay [7] is NCI-H460 lung.
Assay [8] relates to RPMI-8226 leukemia.
The test system of assay [9] is SF-268 CNS.
Assay [10] has as its system U251 CNS.

Where “and” joins values, the source holds several entries; their conditions need not be identical. Equal entries are not always repeated.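 Interpolation was linear, between the two tested concentrations surrounding the appropriate level; five concentrations were tested over 48 hours in 96-well plates. Abbreviation: GI50, concentration required for 50% inhibition of growth. TGI is the concentration that stops growth completely.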

In the case of `O=C(O)CSc1cc(NS(=O)(=O)c2ccc(Br)cc2)c2ccccc2c1O`, the GI50 in assay [1] was 18.3 µM; in assay [2], 4.37 µM; in [3] it was 13.5 µM; in assay [4], 3.14 µM; in assay [5], 5.71 µM; in assay [6] it was 20.1 µM. Also, the GI50 in assay [7] is 18.8 µM; in assay [8], 5.33 µM; in assay [9], 8.18 µM; in assay [10] it was 15 µM. In addition, the TGI in assay [1] is 34.7 µM; in [2] it was more than 44.8 µM; in assay [3], 31.6 µM; in [4] it was 12.1 µM; in assay [5] it was 19.8 µM; in [6], 44.9 µM. The TGI in assay [7] is 37.4 µM; in [8] it was 29.9 µM; in [9], 23.4 µM; in [10], 30.9 µM.

Turning to `CN(C)c1ccc(/C=N/N=C(\C#N)[S][Sn]([Cl])([c]2ccccc2)[c]2ccccc2)cc1`, the GI50 was 1.96 µM in assay [1]; 0.281 µM in [2]; 1.42 µM in assay [3]; 1.04 µM in assay [4]; 0.283 µM in [5]; 1.82 µM in assay [6]. Moreover, the GI50 in [7] is 2.18 µM; in assay [8], 1.43 µM; in [9], 1.51 µM; in assay [10] it was 1.78 µM. Further, the TGI in [1] came to 3.71 µM; in assay [2], 1.05 µM; in assay [3] it was 2.87 µM; in assay [4], 2.31 µM; in [5], 1.35 µM; in assay [6], 3.46 µM. Further, the TGI was found to be 4.75 µM in [7], 5.15 µM in assay [8], 3.06 µM in assay [9] and 3.2 µM in [10].

Consider `O=C1[C@H](Cc2ccc(O)cc2)N2C(=O)CCN(C(=O)NCc3ccccc3)[C@H]2CN1Cc1cccc2ccccc12`, for which the GI50 in assay [1] is 1.38 µM; in [2] it was 2.19 µM; in assay [3] it was 0.418 µM; in [4], 1.43 µM; in [5], 6.02 µM; in assay [6] it was 1.99 µM. For the same compound, the GI50 in assay [7] is 1.73 µM; in assay [8] it was 3.66 µM; in assay [9], 1.81 µM; in assay [10], 0.985 µM. The TGI was 6.75 µM in assay [1]; more than 53.1 µM in assay [2]; 2.4 µM in [3]; 14.4 µM in assay [4]; 39 µM in assay [5]; 21.4 µM in assay [6]. Besides, the TGI worked out at 7.23 µM in assay [7], 23.1 µM in [8], 15.5 µM in assay [9] and 18.6 µM in assay [10].

Regarding `OCc1ccc(N2CCc3ccc(F)cc3C2)cc1Cl`, the GI50 in assay [1] is 0.0173 µM; in assay [2] it was 2.6 µM; in [3] it was 0.146 µM; in assay [4], 3.73 µM; in assay [5], 0.137 µM; in [6], 0.0267 µM. The GI50 in [7] was 0.0872 µM; in assay [8], 0.263 µM; in assay [9], 13.1 µM; in assay [10] it was 0.124 µM. The TGI is 0.0751 µM in assay [1]; 9.97 µM in [2]; 0.889 µM in assay [3]; 12.3 µM in assay [4]; 11 µM in [5]; 0.114 µM in assay [6]. Further, the TGI in [7] was 0.532 µM; in [8] it was 10.7 µM; in [9], 27 µM; in [10], 8.57 µM.

In the case of `O=C1NC(=NCc2cccs2)O/C1=C\c1ccc2ncccc2c1`, the GI50 in assay [1] is 0.606 µM; in [2], 4.8 µM; in [3], 1.51 µM; in [4] it was 5.87 µM; in assay [5], 5.02 µM; in assay [6] it was 5.82 µM. The GI50 in [7] is 6.62 µM; in assay [8], 4.26 µM; in assay [9], 5.34 µM; in assay [10], 5.07 µM. Further, the TGI is 4.81 µM in [1]; 16.7 µM in assay [2]; 9.66 µM in assay [3]; 19.4 µM in assay [4]; 23.7 µM in assay [5]; more than 19.8 µM in assay [6]. For the same compound, the TGI in assay [7] is more than 25 µM; in [8], 17.3 µM; in assay [9] it was 18.1 µM; in assay [10], more than 18.8 µM.

Consider `COc1ccccc1CNCCCN1C(=O)c2ccc3c4c(ccc(c24)C1=O)C(=O)N(CCCNCc1ccccc1OC)C3=O`, for which the GI50 in [1] was 1.21 µM; in assay [2] it was 0.194 µM; in assay [3], 0.243 µM; in [4] it was 0.135 µM; in assay [5], 0.108 µM; in [6], 0.362 µM. Further, the GI50 in [7] is 0.167 µM; in assay [8], 0.274 µM; in assay [9] it was 0.257 µM; in assay [10], 0.164 µM. The TGI in assay [1] stood at 2.5 µM; in assay [2] it was 2 µM; in assay [3] it was 0.847 µM; in assay [4] it was 0.365 µM; in assay [5], 0.329 µM; in assay [6] it was 1.32 µM. Also, the TGI in assay [7] was determined as 0.421 µM; in assay [8] it was 0.799 µM; in assay [9] it was 0.834 µM; in [10], 0.447 µM.

With `O=C1NC(=O)C2C3C=CC(C12)C1C2C(=O)NC(=O)C2C31` (stereo not drawn), the GI50 was 467 µM in [1]; 237 µM in [2]; more than 1000 µM in [3]; 537 µM in assay [5]; more than 484 µM in assay [6]; 47 µM and 74.4 µM in assay [7]. In addition, the GI50 was > 76.6 µM and 577 µM in [8]; more than 896 µM in assay [9]. Further, the TGI was 250 µM and > 1000 µM in assay [1]; 250 µM and > 1000 µM in assay [2]; 230 µM and > 1000 µM in [3]; > 85.7 µM and 250 µM and > 1000 µM in assay [4]; 250 µM and > 1000 µM in [5]; 250 µM and > 762 µM in assay [6]. The TGI in [7] was 203 µM and > 1000 µM; in assay [8], 203 µM and > 1000 µM; in [9], more than 1000 µM; in assay [10], 244 µM and > 1000 µM.

For the origin of these results see PubChem BioAssay (NCI).
